The results in this text go back to patent publication US7803837B2, “4-oxo-4,5-dihydro-furan-2-carboxylic acid derivatives and methods of treatment of metabolic-related disorders thereof” (Arena Pharmaceuticals, Inc., priority 2003, dated 2010).

The experiment deals with free fatty acid production. Kind of experiment: Inhibition of free fatty-acid production, in vivo, in catheterized male rats (NEFA assay on serum). Also on record: species or system Sprague-Daly Rats. The note with it: food deprived catheterized rats, IP administration at various concentrations, FIG. 2A/2B. As to the method: Inhibition of Free Fatty-Acid Production, In Vivo, in Catheterized Male Sprague-Daly Rats
Non-esterified free-fatty acid (NEFA) assays were done on serum derived from live, freely moving rats. Jugular vein catheters were surgically implanted into the jugular veins and the animals were allowed to recover at least 48 hr post surgery. Food was removed from the animals approximately 16 hours prior to the assay. A draw of ˜200 μl blood was pulled from the catheter and represents the baseline NEFA serum sample. Drug was administered intra-peritoneally (IP) at various concentrations to individual rats and then ˜200 μl blood draws were pulled from the catheter at the indicated time points for further NEFA analysis. NEFA assays were performed according to the manufacturer's specifications (Wako Chemicals, USA; NEFA C) and free fatty acid concentrations were determined via regression analysis of a known standard curve (range of known free fatty acids). Data was analyzed using Excel and PrismGraph.

SMILES strings stand for the structures.

Take `O=C(O)c1cccnc1` [nicotinic acid, pyridine-3-carboxylic acid]: the “inhibition of plasma free fatty acid (NEFA)” value is reported as “inhibiting plasma free fatty acid concentrations”.
As to `CC1(C2=CCCCC2)OC(C(=O)O)=CC1=O` (racemic) [Compound 1, 5-Cyclohex-1-enyl-5-methyl-4-oxo-4,5-dihydro-furan-2-carboxylic acid], the “inhibition of plasma free fatty acid (NEFA)” value is “able to inhibit free fatty acid production to the same extent, at similar doses and within the same time-frame as compared to nicotinic acid”.
